What was measured:
[1] = target: T1, LPL (lipoprotein lipase) (Homo sapiens, UniProt P06858); test: Confirmation test of LPL activation effect in human skeletal muscle cells; assay type: cell-based; details: 8 hours exposure, vs control group
T1 construct: endogenous in cells; host or cells: human skeletal muscle myoblasts, differentiated
T1 sequence (P06858 28-475): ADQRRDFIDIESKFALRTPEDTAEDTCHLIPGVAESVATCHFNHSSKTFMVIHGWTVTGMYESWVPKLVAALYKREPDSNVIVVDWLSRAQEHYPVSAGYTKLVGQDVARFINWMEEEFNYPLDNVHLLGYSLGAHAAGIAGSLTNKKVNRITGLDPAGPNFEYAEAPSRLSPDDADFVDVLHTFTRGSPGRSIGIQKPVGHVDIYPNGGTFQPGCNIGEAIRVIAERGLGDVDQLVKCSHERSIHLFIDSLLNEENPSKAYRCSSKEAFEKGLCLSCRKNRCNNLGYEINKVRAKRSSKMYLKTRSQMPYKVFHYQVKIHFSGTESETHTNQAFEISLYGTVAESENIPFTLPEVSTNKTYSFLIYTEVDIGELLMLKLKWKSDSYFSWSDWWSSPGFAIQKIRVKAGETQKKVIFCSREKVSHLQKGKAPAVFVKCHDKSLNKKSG
Method: Human skeletal muscle cells (human skeletal muscle myoblasts) or mouse skeletal muscle cells (C2C12 cells) that were seeded onto plates, cultured, and differentiated were exposed to a 0.3% dimethyl sulfoxide-containing culture medium in which the compound of the present invention was dissolved (concentration: 10 μM or 30 μM). The medium was removed 8 hours after exposure, 10 mM of Tris-HCl buffer (150 mM NaCl, 10 μ/mL; containing heparin sodium) was added to the cells, and the cells were incubated at 37° C. in the presence of 5% CO2 for 10 minutes. LPL activity in the supernatant was measured using an LPL activity assay kit (made by Roar Biomedical Inc.). LPL activity was evaluated based on the increase in fluorescence intensity 10 to 70 minutes after mixing the supernatant with the LPL substrate. The mean value of the increase in fluorescence intensity of the cells exposed to a 0.3% dimethyl sulfoxide-containing culture medium […] was used as mean value of the control group. Note that the compounds of Examples 18, 19, 32, 45 and 57 were tested using human skeletal muscle cells, and other compounds were tested using mouse skeletal muscle cells. The rate of increase (%) was calculated from the measured values of LPL activity in the control group and the experimental group, according to the following formula. Rate of increase in LPL activity (%)=[(mean value of the experimental group)−(mean value of the control group)]/(mean value of the control group)×100

[2] = Confirmation test of anti-obesity action in dietary-obese mice; assay type: in vivo; details: AKR/J mice on high-fat diet (60% kcal fat), 20 mg/kg orally every day for 4 weeks, vs control group
Method: AKR/J mice were used. These mice were fed a high-fat diet with 60% kcal fat, and a model of dietary obesity was developed. 5% aqueous gum arabic suspension, which was prepared such that the dosage of a compound of the present invention was 20 mg/kg body weight, was orally administered to the experimental group of obese mice in an amount of 5 ml/kg body weight. […] The mice were grouped according to body weight. The test suspension was administered everyday at a fixed time for 4 weeks. Body weight was measured during the period of oral administration, and the body weight gain-inhibiting effect was confirmed. The rate of body weight reduction (%) was calculated from the measured body weights of mice in the control group and the experimental group, according to the following formula. […] Rate of body weight reduction (%)=[(mean value of the control group)−(mean value of the experimental group)]/(mean value of the control group)×100

[3] = Body weight gain-inhibiting effect in normal SD rats; assay type: in vivo; details: Rattus norvegicus, po, 100 mg/kg orally every day for 5 days or 2 weeks, vs control group, read-out: Rate of inhibition of body weight gain (%)
Method: (§1) 8-week-old SD rats (Japan Charles River: average body weight of about 350 g) were used. 5% aqueous gum arabic suspension, which was prepared such that the dosage of a compound of the present invention was 100 mg/kg body weight, was orally administered to the experimental group in an amount of 5 ml/kg body weight. 5% aqueous gum arabic suspension (not containing any compounds of the present invention) was orally administered to the control group in an amount of 5 ml/kg body weight. The rats were grouped according to their body weight at 8 weeks of age such that each group had 5 rats. The test compounds were orally administered every day at a fixed time for 5 days or 2 weeks, starting when the rats were 9 weeks old. Body weight was regularly measured during the period of oral administration, and the body weight gain-inhibiting effect was observed. 4 hours after the final administration of the test compound, blood was collected from the vein, plasma was separated from the collected blood, and blood biochemical examinations (triglyceride, HDL-cholesterol) were carried out.
The rate of inhibition of body weight gain (%) was calculated from the measured body weights of rats in the control group and the experimental group, according to the following formula. […] Rate of inhibition of body weight gain (%)=[(mean value of the control group)−(mean value of the experimental group)]/(mean value of the control group)×100

[4] = Lipid-improving action in SD rats: blood biochemical examinations (triglyceride, HDL-cholesterol); assay type: in vivo; details: Rattus norvegicus, po, 100 mg/kg orally every day for 5 days or 2 weeks, plasma 4 hours after final administration, vs control group, read-out: Rate of increase in HDL-cholesterol levels (%)
Method: as §1
Blood biochemical examinations of rats in the control group and the experimental group were performed. The rates of change (%) were calculated according to the following formulae from the measured values obtained from the blood biochemical examinations. […] Rate of decrease in triglyceride levels (%)=[(mean value of the control group)−(mean value of the experimental group)]/(mean value of the control group)×100 Rate of increase in HDL-cholesterol levels (%)=[(mean value of the experimental group)−(mean value of the control group)]/(mean value of the control group)×100

[5] = target: T2, LPL (lipoprotein lipase) (Mus musculus, UniProt P11152); test: Confirmation test of LPL activation effect in mouse skeletal muscle cells (C2C12 cells); assay type: cell-based; details: 8 hours exposure, vs control group
T2 construct: endogenous in cells; host or cells: C2C12 cells, differentiated
T2 sequence (P11152 28-474): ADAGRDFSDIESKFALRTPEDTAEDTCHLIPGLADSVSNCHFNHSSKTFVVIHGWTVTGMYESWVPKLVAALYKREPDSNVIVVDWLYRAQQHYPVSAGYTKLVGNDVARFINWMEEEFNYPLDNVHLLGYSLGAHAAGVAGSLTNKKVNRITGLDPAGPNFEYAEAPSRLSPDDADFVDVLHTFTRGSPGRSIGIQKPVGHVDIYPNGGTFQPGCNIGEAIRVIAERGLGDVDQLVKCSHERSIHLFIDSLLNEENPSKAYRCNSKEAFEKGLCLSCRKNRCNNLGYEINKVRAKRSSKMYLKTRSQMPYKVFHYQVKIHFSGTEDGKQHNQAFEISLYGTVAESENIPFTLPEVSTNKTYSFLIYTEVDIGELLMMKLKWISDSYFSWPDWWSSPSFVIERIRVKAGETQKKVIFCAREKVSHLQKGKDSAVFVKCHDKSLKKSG
Method in brief: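 Differentiated human skeletal muscle myoblasts or mouse C2C12 cells were exposed to compound at 10 μM or 30 μM in 0.3% DMSO medium for 8 h, then LPL was released with heparin-containing Tris-HCl buffer (10 min, 37° C). Supernatant LPL activity was taken as the fluorescence increase 10–70 min after adding substrate; % increase is calculated versus the DMSO control mean.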

Structure (SMILES) | Rate of increase in LPL activity ([1]; amount of addition 10 μM) | Rate of increase in LPL activity ([1]; amount of addition 30 μM) | melting point | Rate of increase in LPL activity ([5]; amount of addition 10 μM) | Rate of increase in LPL activity ([5]; amount of addition 30 μM) | Rate of body weight reduction (%) [2] | inhibition in vivo at 100 mg/kg [3] | change in vivo at 100 mg/kg [4]
COc1cc(-c2c[nH]c(-c3ccc(C(F)(F)F)cc3)n2)ccc1OCc1ccc(Cl)cc1 [Example 32] | 22% | 57% | 158 to 159 °C | – | – | 11% | 8% | 16%
COc1cc(OCc2ccc(Cl)cc2)ccc1-c1c[nH]c(-c2ccc(C(F)(F)F)cc2)n1 [Example 19] | 24% | 28% | 158 to 162 °C | – | – | – | 11% | 99%
COc1cc(OCc2ccc(C#N)cc2)ccc1-c1c[nH]c(-c2cccc(C(F)(F)F)c2)n1.Cl [Example 74] | – | – | 248 to 250 °C | 10% | 55% | – | 6% | 64%
COc1cc(-c2c[nH]c(-c3ccsc3)n2)ccc1OCc1ccc(Cl)cc1 [Example 71] | – | – | 197 to 201 °C | 42% | 114% | – | – | –
COc1cc(-c2nc(-c3ccc(F)cc3)[nH]c2C)ccc1OCc1ccccc1 [Example 49] | – | – | 214 to 218 °C | 47% | 147% | – | – | –
COc1cc(OCc2ccc(Cl)cc2)ccc1-c1c[nH]c(-c2ccccc2C(F)(F)F)n1 [Example 83] | – | – | 158 to 161 °C | 29% | 100% | – | – | –
COc1cc(-c2c[nH]c(-c3ccsc3)n2)ccc1OCc1cccc(C#N)c1.Cl [Example 72] | – | – | 224 to 227 °C | 70% | 123% | – | – | –
COc1ccc(-c2nc(-c3ccc(OCc4ccc(C#N)cc4)cc3OC)c[nH]2)cc1.Cl [Example 87] | – | – | 183 to 186 °C | 23% | 144% | – | – | –
COc1cc(OCc2ccc(C#N)cc2)ccc1-c1c[nH]c(-c2ccc(Cl)c(Cl)c2)n1 [Example 111] | – | – | 137 to 140 °C | 61% | 81% | – | – | –

More lines, main results first:

Rate of increase in LPL activity ([1]; amount of addition 10 μM) | Rate of increase in LPL activity ([1]; amount of addition 30 μM) | melting point | Rate of increase in LPL activity ([5]; amount of addition 10 μM) | Rate of increase in LPL activity ([5]; amount of addition 30 μM) | Structure (SMILES) | Rate of body weight reduction (%) [2] | inhibition in vivo at 100 mg/kg [3] | change in vivo at 100 mg/kg [4]
19% | 40% | > 250 °C | – | – | COc1cc(OCc2ccc(Br)cc2F)ccc1-c1c[nH]c(-c2ccc(F)cc2)n1.Cl [Example 57] | 17% | 14% | 184%
– | – | 160 to 162 °C | 53% | 97% | COc1cc(OCc2ccc(Br)cc2F)ccc1-c1c[nH]c(-c2ccc(C)cc2)n1 [Example 84] | – | 8% | 187%
– | – | 228 to 233 °C | – | – | COc1cc(-c2c[nH]c(-c3ccc(F)cc3)n2)ccc1OCc1ccc(Br)cc1F.Cl [Example 52] | – | 6% | 36%
– | – | 249 to 253 °C | 40% | 95% | COc1cc(OCc2ccc(Br)cc2F)ccc1-c1c[nH]c(-c2cccs2)n1.Cl [Example 23] | 13% | – | –
– | – | 238 to 241 °C | 22% | 87% | COc1cc(OCc2ccc(Cl)cc2)ccc1-c1c[nH]c(-c2ccsc2)n1.Cl [Example 70] | – | 14% | 34%
23% | 23% | 167 to 170 °C | – | – | COc1cc(OCc2ccc(Br)cc2F)ccc1-c1c[nH]c(-c2ccc(C(F)(F)F)cc2)n1 [Example 18] | – | 13% | 171%
23% | 32% | 189 to 191 °C | – | – | COc1cc(OCc2ccc(C#N)cc2)ccc1-c1c[nH]c(-c2ccc(F)cc2)n1.Cl [Example 45] | 11% | 12% | 27%
– | – | 177 to 179 °C | 22% | 34% | COc1cc(-c2c[nH]c(-c3cccs3)n2)ccc1OCc1ccc(Br)cc1F [Example 67] | – | 7% | 15%
– | – | > 250 °C | 40% | 375% | COc1ccc(-c2nc(-c3ccc(OCc4ccc(Br)cc4F)cc3OC)c[nH]2)cc1.Cl [Example 86] | – | – | –
– | – | 233 to 241 °C | 80% | 102% | COc1cc(OCc2ccc(Cl)cc2)ccc1-c1c[nH]c(-c2cc(Cl)cc(Cl)c2)n1.Cl [Example 118] | – | – | –

Reference: patent publication US8329739B2, “Phenylimidazole compounds” (Otsuka Pharmaceutical Factory, Inc., priority 2009, dated 2012)
